pEC50: −log10 of the molar value. Read-outs that look alike come from different tables or passages of the source.
Key:
HBV DNA [1] = format: in vivo, C57BL/6 mice; HBV serotype Ayw, genotype D; conditions: for Serum HBV DNA: group mean ± SEM, n=6
Method: (§1) Prior to treatment start, 1×10^11 viral genomes of an adeno-associated virus (AAV) vector carrying a 1.3-fold overlength copy of an HBV genome (serotype Ayw, genotype D) was administered to C57BL/6 mice via intravenous injection. Introduction of this viral vector results in the expression of HBV DNA and HBV surface antigen (HBsAg) amongst other HBV products. Serum HBV DNA levels in mice was measured using a quantitative polymerase chain reaction (QPCR) assay, HBsAg in serum and liver of mice was measured using an enzyme-linked immunosorbent assay (ELISA), and anti-HBsAg antibodies were measured using ELISA.
(§2) Treatment effects on serum HBV DNA were determined by collecting a small amount of blood on Days 0 (pre-treatment) and 14, as well as from terminal blood collections at Day 42. Treatment effects on HBsAg in serum and liver were determined from terminal sample collections at Day 42.
(§3) Any individual animal samples measured to fall below assay lower limit of quantitation (LLOQ) were reported as the LLOQ value.

HBsAg [2] = test: Serum HBsAg in pHBV1.3 hydrodynamic injection mouse model of HBV (Example 12); format: in vivo, NOD.CB17-Prkdc scid/J mice; HBV genotype D, serotype ayw; conditions: once daily oral from Day 0: RNA destabilizer 10 mg/kg, encapsidation inhibitor 100 mg/kg, nucleos(t)ide analog 0.4 mg/kg, group mean ± SEM, n=7 or 8, from negative control
Method: (§4) On Day −7, 10 micrograms of the plasmid pHBV1.3 (constructed based on details provided in Guidotti, L., et al., Journal of Virology, 1995, 69(10): 6158-6169) was administered to NOD.CB 17-Prkdc^scid/J mice via hydrodynamic injection (HDI; rapid 1.6 mL injection into the tail vein). […] As readouts of the anti-HBV effect of the treatments, serum HBV DNA and serum HBsAg were assessed. Serum HBV DNA concentration in mice was measured using a quantitative PCR assay following total DNA extraction using previously published primers and probe sequences (Tanaka, Y., et al., Journal of Medical Virology, 2004, 72: 223-229). Serum HBsAg concentration in mice was measured using a commercially available ELISA kit (HBsAg EIA 3.0 480 Test Kit, Bio-Rad).
(§5) Animals were treated with RNA destabilizer as follows: Starting on Day 0, a 10 mg/kg dosage of RNA destabilizer was administered orally to animals on a once-daily frequency for a total of seven doses across the duration of the study. Animals were treated with encapsidation inhibitor as follows: Starting on Day 0, a 100 mg/kg dosage of encapsidation inhibitor was administered orally to animals on a once-daily frequency for a total of seven doses across the duration of the study. Animals were treated with nucleos(t)ide analog as follows: Starting on Day 0, a 0.4 mg/kg dosage of nucleos(t)ide analog was administered orally to animals on a once-daily frequency for a total of seven doses across the duration of the study. The RNA destabilizer, the encapsidation inhibitor, and nucleos(t)ide analog were each dissolved in the same co-solvent formulation for administration and negative control animals were administered the co-solvent formulation alone. To calculate treatment-specific effects, the treated groups are compared against negative control (vehicle treated) animals.
(§6) The effect of these treatments was determined by collecting blood on Days −1 (prior to study's treatment phase), 4, and 7 and analyzing it for serum HBV DNA and HBsAg content.

HBV DNA [3] = test: Serum HBV DNA in pHBV1.3 hydrodynamic injection mouse model of HBV (Example 12); format: in vivo, NOD.CB17-Prkdc scid/J mice; HBV genotype D, serotype ayw; conditions: once daily oral from Day 0: RNA destabilizer 10 mg/kg, encapsidation inhibitor 100 mg/kg, nucleos(t)ide analog 0.4 mg/kg, group mean ± SEM, n=7 or 8, from negative control
Method: as §4, §5, §6

HBsAg [4] = test: Liver HBsAg by ELISA in AAV-HBV mouse model (Example 18); format: in vivo, C57BL/6 mice; HBV serotype Ayw, genotype D; conditions: Study Day 42; siRNA 3 mg/kg s.c. Days 0 and 28, encapsidation inhibitor 100 mg/kg and/or TDF 1 mg/kg oral daily Days 0-41; group mean ± SEM, n=6
Method: as §1, §2, §3

HBsAg [5] = test: microbe, parasite or virus in culture; format: cell-based, HBV genotype D; primary human hepatocytes; conditions: Hepatitis B virus
Method: (§7) The day PHH seeding date was defined as day 0.
(§8) The PHH were infected with 400 HBV GE/cell of HBV genotype D type HBV on day 1.
(§9) The test articles were further diluted with the culture medium to the final test concentrations.
(§10) All the test articles were further diluted 100 times with the culture medium. The final concentration of DMSO in the culture medium was […].
(§11) The compounds were tested at 7 concentrations, 3-fold dilution, in triplicate.
(§12) Four two-way combinations were performed on a 5×5 matrix, in triplicate plates. Transfection reagent was present in all wells. The culture medium containing the articles were refreshed every 1 or 2 days.
HBsAg in the culture supernatants harvested on days 8 was measured using the HBsAg/ELISA kit (Autobio) according to the manual. The samples were diluted with PBS to get the signal in the range of the standard curve. Percent inhibition of HBsAg was calculated with the formula below:
% Inh. HBsAg=[1−HBsAg quantity of sample/[…] of DMSO control]×100
(§13) Results of double combination studies were analyzed using MacSynergy II software (Prichard and Shipman, 1992).

HBV DNA [6] = test: HBV DNA in culture supernatants of HBV-infected PHH by qPCR, single agents and double combinations (Examples 1-4); format: cell-based, HBV genotype D; primary human hepatocytes; conditions: Hepatitis B virus
Method: as §7, §8, §9, §10, §11, §12
DNA in the culture supernatants harvested on days 8 was isolated with QIAamp 96 DNA Blood Kit (Qiagen-51162). For each sample, 100 μl of each culture supernatant was used to extract DNA. The DNA was eluted with 180 μl of AE. HBV DNA in the culture supernatants was quantified by quatitative PCR using primers and probes outlined in Table 3. Percent inhibition of HBV DNA was calculated with the formula below:
% Inh. HBV DNA=[1−value of sample/AVG. value of Medium control]×100.
as §13

Structure (SMILES) | Serum HBV DNA (HBV DNA [1]; Day 0 (pre-treatment)) [log10 copies/microliter] | Serum HBV DNA (HBV DNA [1]; Day 14, siRNA 3 mg/kg s.c. Days 0 and 28, encapsidation inhibitor 100 mg/kg and/or TDF 1 mg/kg oral daily) [log10 copies/microliter] | Serum HBV DNA (HBV DNA [1]; Day 42, siRNA 3 mg/kg s.c. Days 0 and 28, encapsidation inhibitor 100 mg/kg and/or TDF 1 mg/kg oral daily Days 0-41) [log10 copies/microliter] | HBV DNA inhibition, decrease from Day 0 to Day 42 (HBV DNA [1]; serum, AAV-HBV mice, siRNA 3 mg/kg s.c. Days 0 and 28, encapsidation inhibitor 100 mg/kg and/or TDF 1 mg/kg oral daily) [log10] | Serum HBsAg log reduction (HBsAg [2]; Day 4) [log] | Serum HBsAg log reduction (HBsAg [2]; Day 7) [log] | Serum HBV DNA log reduction (HBV DNA [3]; Day 4) [log] | Serum HBV DNA log reduction (HBV DNA [3]; Day 7) [log] | Liver HBsAg (HBsAg [4]) [log10 IU/mg liver protein] | pEC50 (HBsAg [5]) | pEC50 (HBV DNA [6])
CC(C)OC(=O)OCOP(=O)(CO[C@H](C)Cn1cnc2c(N)ncnc21)OCOC(=O)OC(C)C.O=C(O)/C=C/C(=O)O [TDF, tenofovir disoproxil fumarate, reference compound] | 4.31 ± 0.10 | 3.11 ± 0.15 | 3.58 ± 0.14 | 0.73 | −0.01 ± 0.12 | 0.10 ± 0.07 | 1.2 ± 0.2 | 1.7 ± 0.1 | 1.77 ± 0.03 | – | –
CC(C)OC(=O)[C@H](C)N[P@](=O)(CO[C@H](C)Cn1cnc2c(N)ncnc21)Oc1ccccc1 [TAF, tenofovir alafenamide] | – | – | – | – | – | – | – | – | – | 8.39 | 10.08
